Laboratory results as given in patent publication US10973840B2, “Methods of sensitizing tumor cells to weak base chemotherapeutic drugs” (SOCPRA SCIENCES SANTÉ ET HUMAINES S.E.C., priority 2017, dated 2021).
Like-named read-outs stand apart in the source and are kept apart here.

Tests used:
Assay type in all cases: cell-based, human
[1] = system: HT-1080 cells; assay: Intracellular localization of Dox by confocal live-cell imaging, HT-1080; settings: for effect on hypoxia-induced Dox sequestration within endosomes: HT-1080, 1% O2, Cq 10 μM, Baf 100 nM
Method: (§1) Cells were cultured in 25 mm-diameter glass coverslips (Thermo Fisher Scientific) and incubated under various conditions (as indicated in the FIG. legends). Cells were then incubated for 2 h in a medium containing Dox (2 μM). After the incubation period, cells were washed to remove excess Dox and left in drug-free media for 10 min. […] Coverslips were mounted on glass slides and placed on a 37° C. warmed stage of an Olympus Fluoview™ FV1000 (Olympus, Tokyo, Japan) confocal laser scanning microscope. Dox was excited with a green helium neon laser (543 nm) and emitted fluorescence intensity was measured. Images were acquired on the same day, typically from 10-20 cells of similar size from each experimental condition, using identical instrument settings.

[2] = system: MDA-MB-231 cells; assay: Intracellular localization of Dox by confocal live-cell imaging, MDA-MB-231; settings: MDA-MB-231, 1% O2; Cq 10 μM, Baf 100 nM
Method: as §1

[3] = system: HT-1080 cells; assay: Intracellular pH measurement (HPTS/SNARF-1) by confocal microscopy, HT-1080; settings: HT-1080, 1% O2, 4 h; for effect on hypoxia-induced intravesicular acidification: Baf 100 nM, Cq 10 μM
Method: (§2) The pH sensing ratiometric dyes SNARF-1 and HPTS (Life Technologies) were used simultaneously for pH measurement of both cytoplasmic (C-SNARF-1) and endosomal/lysosomal (HPTS) compartments as previously described^30. Briefly, cells were cultured in 35 mm petri dishes (BD Biosciences) and used at 50% confluence. For endocytic labeling, cells were incubated overnight with HPTS (1 mM), washed, followed by a 20-min incubation with SNARF-1 (5 μM) to label the cytoplasmic compartment. Living cells were analyzed using an Olympus Fluoview™ FV1000 confocal microscope. Fluorescence emissions of both pH-sensing probes were recorded and subsequently analyzed as described^30.

[4] = system: MDA-MB-231 cells; assay: Intracellular pH measurement (HPTS/SNARF-1) by confocal microscopy, MDA-MB-231; settings: MDA-MB-231, 1% O2, 4 h; for effect on hypoxia-induced intravesicular acidification: Baf 100 nM, Cq 10 μM
Method: as §2

[5] = system: MDA-MB-231 breast cancer cells; assay: MTT cell viability assay, MDA-MB-231; settings: for IC50: Homo sapiens, MDA-MB-231, 72 h; for Fold change: MDA-MB-231, IC50 at 1% O2 to IC50 at 21% O2
Method: (§3) Cells (5×10^3) were cultured in 96-well plates and pre-incubated under 21% O2 or 1% O2 for 4 h following the addition of drugs for 72 h. Cell viability was measured using the 3-(4,5-dimethylthiazol-2-yl)-2,5-diphenyltetrazolium bromide (MTT) dye (Life Technologies) according to manufacturer's instructions. Because hypoxic conditions may affect the reduction of MTT to formazan, incubation of all cell cultures with MTT were performed under normoxic conditions. Each experiment was performed in triplicate and at least three independent experiments were performed. Log-scale dose-response data were plotted on a graph and a three-parameter non-linear regression was applied to determine IC50 values. For calculation of the IC50s, both normoxic and hypoxic drug-treated samples were normalized with their untreated counterpart.
(§4) To assess the role of pH in hypoxia-induced resistance to anthracyclines, the human breast cancer MDA-MB-231 and fibrosarcoma HT-1080 cell lines were incubated in the presence or absence of the commonly used anthracycline drugs, doxorubicin (Dox), daunorubicin (Dau) and the anthracycline analog drug, mitoxantrone (Mtx), under hypoxic (1% O2) or normoxic (21% O2) conditions for 72 hours. Cell viability was then assessed using the MTT assay. The impact of extracellular pH on Dox uptake by HT-1080 was also assessed.

[6] = system: HT-1080 fibrosarcoma cells; assay: MTT cell viability assay, HT-1080; settings: for Fold change: HT-1080, IC50 at 1% O2 to IC50 at 21% O2; for increase in resistance toward the drug by hypoxia: HT-1080 cells (so in the source), 1% O2 vs 21% O2; for IC50: Homo sapiens, HT-1080, 72 h
Method: as §3, §4

[7] = system: NHE6; assay: NHE6 localization (cell-surface biotinylation, EEA1 immunofluorescence) in HT-1080
Method: Biotinylation steps were performed at […] Cells were grown on circular 15-mm diameter glass coverslips (Thermo Fisher Scientific) and incubated at 21% or 1% O2. Cells were then washed with PBS containing 1 mM CaCl2 and 0.5 mM MgCl2 (PBSCM) and incubated for 5 min with 0.3 mg/ml of EZ-Link Sulfo-NHS-SS-Biotin (Pierce) in PBSCM. Unreacted biotin was quenched using 100 mM glycine. Cells were fixed for 10 min at room temperature using 1% PFA in PBS. Prior to staining, cells were blocked with 5% of BSA for 1 h at room temperature. Biotinylated cells were stained with 5 μg/ml Streptavidin Texas Red (Invitrogen) for 1 h at 4° C. Coverslips were washed and mounted on a microscope slide using Vectashield mounting media (Vector labs).
Cultured cells were fixed with 1% PFA for 10 min at room temperature, permeabilized with saponin (0.05% in PBS) for 20 min, and blocked with 2% BSA in PBS for 30 min. Cells were then incubated with the appropriate primary and secondary antibodies as follows: anti-EEA1 (1/500), anti-Rab7 (1/500) and fluorophore-conjugated secondary antibodies (1/1000). Images were recorded using an Olympus Fluoview™ FV1000 confocal microscope using a 63× oil immersion objective.

[8] = system: NHE6-RACK1 interaction; assay: Co-immunoprecipitation of NHE6 with RACK1 in HT-1080; settings: HT-1080, PDBu 100 nM
Method: Cells were lysed on ice in NP-40-containing buffer (50 mM Tris-HCl pH 8.0, 150 mM NaCl, 1% NP-40, 5 mM EDTA, phosphatase and protease inhibitors). Cell lysates were centrifuged at 13,000 rpm at 4° C. and protein concentration determined using the BCA protein assay (Thermo Fisher Scientific). After a pre-clearing step with protein A/G-agarose beads (GE Healthcare), protein complexes were immunoprecipitated overnight at 4° C. Samples were incubated in SDS-loading buffer for 30 minutes at room temperature to avoid transmembrane protein aggregates upon heating in a boiling water bath. Proteins were separated by SDS-PAGE electrophoresis, transferred to a PVDF membrane and immunoblotting was performed as described, using anti-NHE6 (1:1000), anti-NHE9 (1:1000) anti-RACK1 (1:2000), anti-tubulin (1:5000), anti-actin (1:5000) anti-HA (1:1000), anti-PKC (1:200), anti-phospho PKC substrate (1:1000), anti-LAMP2 (1:200), anti-P-glycoprotein (1:200) and HRP-conjugated secondary antibodies (1/10 000)^66.

SMILES: CO/C1=C\C(C)=C\[C@@H](C)[C@@H](O)[C@@H](C)C/C(C)=C/C=C/[C@H](OC)[C@@H]([C@@H](C)[C@@H](O)[C@H](C)[C@@]2(O)C[C@@H](O)[C@H](C)[C@@H](C(C)C)O2)OC1=O [Baf, bafilomycin A1]
- effect on hypoxia-induced Dox sequestration within endosomes [1]: abolished hypoxia-induced Dox sequestration within endosomes
- effect on hypoxia-induced Dox sequestration within endosomes [2]: abolished hypoxia-induced Dox sequestration within endosomes
- effect on hypoxia-induced intravesicular acidification [3]: prevented
- effect on hypoxia-induced intravesicular acidification [4]: prevented

SMILES: CCN(CC)CCCC(C)Nc1ccnc2cc(Cl)ccc12 (centres unmarked) [Cq, chloroquine]
- effect on hypoxia-induced Dox sequestration within endosomes [1]: abolished hypoxia-induced Dox sequestration within endosomes
- effect on hypoxia-induced Dox sequestration within endosomes [2]: abolished hypoxia-induced Dox sequestration within endosomes
- effect on hypoxia-induced intravesicular acidification [3]: prevented
- effect on hypoxia-induced intravesicular acidification [4]: prevented

SMILES: COc1cccc2c1C(=O)c1c(O)c3c(c(O)c1C2=O)C[C@@](O)(C(C)=O)C[C@@H]3O[C@H]1C[C@H](N)[C@H](O)[C@H](C)O1 [Dau, daunorubicin]
- IC50 ([5]; read-out: IC50 of anthracyclines, MDA-MB-231, 1% O2, 72 h): 0.921 µM
- IC50 ([5]; read-out: IC50 of anthracyclines, MDA-MB-231, 21% O2, 72 h): 0.199 µM
- Fold change [5]: 4.7 fold
- Fold change [6]: 8.1 fold
- increase in resistance toward the drug by hypoxia [6]: 4.7 fold
- IC50 ([6]; read-out: IC50 of anthracyclines, HT-1080, 1% O2, 72 h): 0.814 µM
- IC50 ([6]; read-out: IC50 of anthracyclines, HT-1080, 21% O2, 72 h): 0.102 µM

SMILES: CCN(c1nc(N)c(C(=O)NC(=N)N)nc1Cl)C(C)C [EIPA]
- effect on hypoxia-induced increase in cytosolic pH ([3]; EIPA 25 μM): prevented
- effect on hypoxia-induced increase in cytosolic pH ([4]; EIPA 25 μM): prevented

SMILES: CN(C)CCCn1cc(C2=C(c3c[nH]c4ccccc34)C(=O)NC2=O)c2ccccc21 [GF109203X]
- Dox within the nucleus ([1]; HT-1080, 1% O2, PKC inhibition (GF-109203x 200 nM)): promoted the accumulation of Dox in the nuclear compartment
- endosomal/lysosomal pH under hypoxic conditions ([3]; PKC inhibition (GF-109203x 200 nM)): partial recovery of normal pH values
- hypoxia-induced NHE6 relocalization ([7]; HT-1080, 1% O2, 4 h, GF-109203x 200 nM): blocked

SMILES: O=C1c2c(O)ccc(O)c2C(=O)c2c(NCCNCCO)ccc(NCCNCCO)c21 [Mtx, mitoxantrone]
- IC50 ([5]; MDA-MB-231, 1% O2, 72 h, read-out: IC50 of anthracyclines): 0.752 µM
- IC50 ([5]; MDA-MB-231, 21% O2, 72 h, read-out: IC50 of anthracyclines): 0.152 µM
- Fold change [5]: 5.0 fold
- Fold change [6]: 4.9 fold
- increase in resistance toward the drug by hypoxia [6]: 5.0 fold
- IC50 ([6]; HT-1080, 1% O2, 72 h, read-out: IC50 of anthracyclines): 0.451 µM
- IC50 ([6]; HT-1080, 21% O2, 72 h, read-out: IC50 of anthracyclines): 0.0935 µM

SMILES: CCCC(=O)O[C@@H]1[C@@H](C)[C@@]2(O)[C@@H](C=C(CO)C[C@]3(O)C(=O)C(C)=C[C@@H]23)[C@@H]2C(C)(C)[C@]12OC(=O)CCC [PDBu, phorbol-12,13-dibutyrate]
- relocalization of NHE6 from endosomes to the plasma membrane ([7]; HT-1080, normoxia, PDBu 100 nM): promoted
- association of NHE6 with RACK1 [8]: promoted
